“And” between values parts separate entries of the source, which are not always exact repeats. Equal values may be shown once.
How the values were obtained:
mMOR [1] = molecular target: T1, mMOR (Mus musculus, UniProt P42866); assay: [125I]BNtxA radioligand competition binding, mouse MOR
T1 construct: signal peptide (heterologous, not specified) (N); expressed in transfected cells; pcDNA3.1(+) construct made in house

mKOR = molecular target: T2, mKOR (Mus musculus, UniProt P33534); assay: [125I]BNtxA radioligand competition binding, mouse KOR
T2 construct: expressed in transfected cells; membranes

mDOR [2] = molecular target: T3, mDOR (Mus musculus, UniProt P32300); assay: [125I]BNtxA radioligand competition binding, mouse DOR
T3 construct: expressed in transfected cells

mMOR [3] = molecular target: T1, mMOR; assay: CAMYEL BRET cAMP agonist assay at mMOR; assay type: cell-based; conditions: for cAMP %: single replicates, source data Fig 6b
hMOR = molecular target: T4, hMOR (Homo sapiens, UniProt P35372); assay: CAMYEL BRET cAMP agonist assay at hMOR; assay type: cell-based; conditions: for cAMP %: hMOR, single replicates, source data Fig 6c
T4 construct: expressed in transfected cells; plasmid a gift from Dr. Nevin Lambert

mDOR [4] = molecular target: T3, mDOR; assay: CAMYEL BRET cAMP agonist assay at mDOR; assay type: cell-based; conditions: for Agonist activity of 7OH analogs at mDOR: single replicate values, Supplementary Figure 7B, listed as 7-OH-Mitragynine
hDOR = hDOR (Homo sapiens, UniProt P41143); assay: CAMYEL BRET cAMP agonist assay at hDOR; assay type: cell-based; conditions: for Agonist activity of 7OH analogs at hDOR: single replicate values, Supplementary Figure 7A, listed as 7-OH-Mitragynine
rKOR = molecular target: T5, rKOR (Rattus norvegicus, UniProt P34975); assay: CAMYEL BRET cAMP agonist assay at rKOR; assay type: cell-based; conditions: individual replicates, Supplementary Figure 8B source data
T5 construct: expressed in transfected cells

hKOR = hKOR (Homo sapiens, UniProt P41145); assay: CAMYEL BRET cAMP agonist assay at hKOR; assay type: cell-based; conditions: individual replicates, Supplementary Figure 8A source data
CD1 mice = assay: Tail-flick antinociception in CD1 mice; assay type: in vivo, mouse; conditions: Fig 9b; 7OH 2 mg/kg, sc; individual animals

## CC[C@@H]1CN2CC[C@@]3(O)C(=Nc4cccc(OC)c43)[C@@H]2C[C@@H]1/C(=C\OC)C(=O)OC [7OH, 7-Hydroxymitragynine, reference compound]
mMOR [1]
  Ki: 21.5 ± 0.8 nM
mKOR
  Ki: 119 ± 2.1 nM
mDOR [2]
  Ki: 88.5 ± 9.9 nM
mMOR [3]
  EC50: 48 nM
mMOR [3]; Log[drug] (M) -5, mMOR
  cAMP %: 54.7418% and 39.306% and 62.8715% and 90.7674% and 85.3805% and 81.3701% and 80.1578% and 78.2326% and 79.4832%
mMOR [3]; Log[drug] (M) -6, mMOR
  cAMP %: 51.4904% and 44.0439% and 41.1377% and 71.7778% and 87.0279% and 84.9352% and 65.6946% and 62.0616% and 68.2077%
mMOR [3]; Log[drug] (M) -7, mMOR
  cAMP %: 31.3362% and 29.5321% and 20.0587% and 64.2387% and 61.8389% and 74.7851% and 53.7172% and 48.585% and 45.7301%
mMOR [3]; Log[drug] (M) -8, mMOR
  cAMP %: 9.25% and 16.4555% and 10.0292% and 22.5933% and 31.4368% and 25.3107% and 17.3146% and 8.444% and 13.6716%
mMOR [3]; Log[drug] (M) -9, mMOR
  cAMP %: 6.25% and 5.067% and 3.569% and -0.5857% and 7.672% and -7.0867% and 8.23% and -1.022% and 10.8029%
mMOR [3]; Log[drug] (M) -10, mMOR
  cAMP %: 12.6265% and -11.9755% and 9.001% and 8.7384% and -5.2017% and 8.648% and -2.705% and -3.188% and 5.894%
mMOR [3]; Log[drug] (M) -11, mMOR
  cAMP %: -0.9102% and -0.5945% and 1.505% and 10.3177% and 11.6% and 5.328% and 6.124% and -1.189% and -0.6754%
mMOR [3]; Log[drug] (M) -13, mMOR, cAMP inhibition as % of DAMGO
  cAMP %: 3.306% and 2.892% and -4.359% and 9.797% and 10.0834% and 11.919% and 5.129% and 4.129% and 1.2769%
mMOR [3]; mMOR, maximal inhibitory effect on cAMP levels relative to DAMGO
  Emax: 70%
hMOR
  Emax: 96%
hMOR; Log[drug] (M) -5
  cAMP %: 88.4213% and 90.605% and 95.9962% and 96.6598% and 92.1499% and 89.6322% and 104.97% and 106.65% and 107.127%
hMOR; Log[drug] (M) -6
  cAMP %: 85.9913% and 88.2699% and 100.077% and 95.6224% and 98.6028% and 95.7246% and 101.519% and 93.2699% and 100.898%
hMOR; Log[drug] (M) -7
  cAMP %: 74.1823% and 79.6011% and 86.6364% and 71.3053% and 75.9463% and 78.9671% and 86.5888% and 87.8073% and 87.9307%
hMOR; Log[drug] (M) -8
  cAMP %: 47.9539% and 40.673% and 45.9228% and 28.5173% and 37.309% and 37.8989% and 36.8098% and 40.2437% and 43.4509%
hMOR; Log[drug] (M) -9
  cAMP %: -5.159% and -0.2818% and 15.9197% and 2.836% and 1.425% and -4.261% and 10.2218% and -0.8382% and 19.3398%
hMOR; Log[drug] (M) -10
  cAMP %: 2.406% and -6.901% and 4.4945% and -1.371% and 5.724% and -0.06095% and -1.689% and 0.384% and 1.305%
hMOR; Log[drug] (M) -11
  cAMP %: 10.0741% and 2.867% and -1.276% and 14.2755% and -12.2251% and 5.789% and 12.061% and -4.689% and 0.8824%
hMOR; Log[drug] (M) -13, cAMP inhibition as % of DAMGO
  cAMP %: 3.998% and -9.01% and 9.508% and 14.9262% and 7.334% and 14.594% and 2.431% and 9.511% and 1.874%
mDOR [4]
  EC50: 71.4 nM
mDOR [4]; Log[drug] (M) -5
  Agonist activity of 7OH analogs at mDOR: 79.5205 and 79.1947 and 68.9488 and 85.2247 and 78.2035 and 78.3957 and 62.0758 and 81.7668 and 72.4775
mDOR [4]; Log[drug] (M) -6
  Agonist activity of 7OH analogs at mDOR: 49.9165 and 58.342 and 65.4236 and 68.6722 and 65.6062 and 68.2461 and 72.0352 and 62.2673 and 61.4936
mDOR [4]; Log[drug] (M) -7
  Agonist activity of 7OH analogs at mDOR: 29.0999 and 46.5592 and 41.3409 and 38.1857 and 36.2209 and 62.8298 and 64.7985 and 75.1004
mDOR [4]; Log[drug] (M) -8
  Agonist activity of 7OH analogs at mDOR: 17.0946 and 20.9939 and 16.1181 and 8.745 and 16.0659 and 5.863 and 49.6952 and 40.7941 and 63.5779
mDOR [4]; Log[drug] (M) -9
  Agonist activity of 7OH analogs at mDOR: 27.3274 and 1.192 and 34.2965 and 12.9525 and -4.552 and -8.401 and 25.2583 and 24.354 and 24.6431
mDOR [4]; Log[drug] (M) -10
  Agonist activity of 7OH analogs at mDOR: 39.904 and 39.7156 and 42.1881 and 15.8228 and 9.006 and 14.7091 and 41.1226 and 23.2827 and 29.2586
mDOR [4]; Log[drug] (M) -11
  Agonist activity of 7OH analogs at mDOR: 3.455 and 6.714 and 6.951 and -3.421 and 2.4315 and 1.875 and 9.138 and 13.5385
mDOR [4]; Log[drug] (M) -13
  Agonist activity of 7OH analogs at mDOR: 3.619 and 5.368 and -8.987 and -7.007 and 2.297 and 7.3103 and -1.541 and -0.9135 and 2.455
mDOR [4]; read-out: Emax
  Emax: 72%
hDOR
  EC50: 99.9 nM
hDOR; Log[drug] (M) -5
  Agonist activity of 7OH analogs at hDOR: 59.4902 and 54.7394 and 48.113 and 45.4731 and 42.3531 and 41.8085 and 33.7355 and 48.8189 and 36.1755
hDOR; Log[drug] (M) -6
  Agonist activity of 7OH analogs at hDOR: 47.0072 and 54.0661 and 57.5431 and 39.2612 and 45.3193 and 38.3255 and 32.249 and 29.9213 and 37.5943
hDOR; Log[drug] (M) -7
  Agonist activity of 7OH analogs at hDOR: 27.5943 and 29.9093 and 13.7827 and 13.3703 and 19.5028 and 21.8057 and 32.1543 and 37.3674 and 42.4632
hDOR; Log[drug] (M) -8
  Agonist activity of 7OH analogs at hDOR: 27.0326 and 26.8622 and 6.318 and -2.952 and 5.202 and 3.255 and 18.5072 and 16.8026 and 16.758
hDOR; Log[drug] (M) -9
  Agonist activity of 7OH analogs at hDOR: 15.8661 and 3.122 and 22.479 and 1.833 and -4.308 and 2.475 and 15.4988 and 8.368 and 7.075
hDOR; Log[drug] (M) -10
  Agonist activity of 7OH analogs at hDOR: 31.7942 and 19.5741 and 16.1123 and 10.5331 and 9.484 and 5.51 and 21.6698
hDOR; Log[drug] (M) -11
  Agonist activity of 7OH analogs at hDOR: 10.918 and -1.6818 and 2.572 and 2.605 and 5.418 and 12.5121 and 11.3973 and 0.7522 and -0.994
hDOR; Log[drug] (M) -13
  Agonist activity of 7OH analogs at hDOR: 3.025 and -6.776 and 3.7513 and 10.1702 and 6.174 and 15.4423 and -4.715 and 5.3718 and -0.6565
hDOR; read-out: Emax
  Emax: 45%
rKOR; Log [drug](M) -5
  Agonist activity of 7OH analogs at rKOR: 51.4853 and 69.9742 and 40.1102 and 17.9877 and 23.0672 and 30.6086 and 23.1026 and 36.1112 and 26.5447
rKOR; Log [drug](M) -6
  Agonist activity of 7OH analogs at rKOR: 50.3386 and 47.4584 and 37.1736 and 16.4913 and 27.1082 and 15.3746 and 22.6508 and 23.988 and 23.2951
rKOR; Log [drug](M) -7
  Agonist activity of 7OH analogs at rKOR: 32.3706 and 5.504 and 6.859 and 19.3779 and 10.5115 and 15.4551 and 8.6 and 9.151 and 16.9313
rKOR; Log [drug](M) -8
  Agonist activity of 7OH analogs at rKOR: 4.174 and 5.52 and 21.8967 and -3.058 and 2.36 and 0.6978 and 14.0563 and 6.31 and 24.1641
rKOR; Log [drug](M) -9
  Agonist activity of 7OH analogs at rKOR: 4.922 and -12.3356 and 11.254 and 8.301 and 17.6392 and 14.4513 and 3.607 and 6.21 and -1.551
rKOR; Log [drug](M) -10
  Agonist activity of 7OH analogs at rKOR: -1.1625 and -7.143 and 8.305 and 14.5638 and 5.983 and 1.382 and -0.5163 and -2.6368 and 4.024
rKOR; Log [drug](M) -11
  Agonist activity of 7OH analogs at rKOR: 3.848 and 0.4662 and 0.6482 and 7.796 and 8.5204 and -1.878 and 0.3369 and -2.372 and 2.035
rKOR; Log [drug](M) -13
  Agonist activity of 7OH analogs at rKOR: 5.7561 and 2.46 and -0.5992 and 11.3924 and -1.857 and 11.6902 and 1.603 and -2.596 and 3.807
hKOR; Log [drug](M) -5
  Agonist activity of 7OH analogs at hKOR: 25.1107 and 37.2516 and 25.09 and 18.6326 and 7.697 and 7.056 and 12.3573 and 15.4119 and 15.9917
hKOR; Log [drug](M) -6
  Agonist activity of 7OH analogs at hKOR: 26.3842 and 27.9158 and 17.2556 and 19.1124 and 15.0208 and 6.652 and 13.1771 and 3.299 and 8.814
hKOR; Log [drug](M) -7
  Agonist activity of 7OH analogs at hKOR: 10.6234 and 4.588 and 26.8644 and 8.68 and -0.2355 and 14.6509 and 3.557 and -6.963 and -8.284
hKOR; Log [drug](M) -8
  Agonist activity of 7OH analogs at hKOR: 5.978 and -10.4494 and 7.122 and 8.973 and 3.679 and 0.5669 and 3.537 and -8.354 and -5.217
hKOR; Log [drug](M) -9
  Agonist activity of 7OH analogs at hKOR: 4.358 and -4.206 and -18.6896 and -3.311 and 1.614 and -2.537 and 1.131 and 5.305 and 46.2002
hKOR; Log [drug](M) -10
  Agonist activity of 7OH analogs at hKOR: -9.33 and 0.6018 and -2.152 and 0.113 and -1.397 and 4.8046 and -5.84 and -6.29 and 4.4418
hKOR; Log [drug](M) -11
  Agonist activity of 7OH analogs at hKOR: 2.533 and -16.0954 and -7.281 and -0.5606 and -1.386 and 5.188 and 3.6558 and -6.195 and -4.675
hKOR; Log [drug](M) -13
  Agonist activity of 7OH analogs at hKOR: -2.907 and -1.906 and 4.813 and 2.257 and -10 and 7.743 and -0.9804 and -0.456 and 1.436
CD1 mice
  Tail flick (%MPE): 100.00 %MPE (8×) and 57.97 %MPE and 52.05 %MPE
  Tail flick latency: 10 (8×) and 7.1 and 6.5

From PMC8219695 (Nature Communications, 2021)
